The record followed here is US20240254115A1 (ACONDICIONAMIENTO TARRASENSE, priority 2021, published 2024).

For one assay, the target named is T1, human σ1 receptor (Homo sapiens, UniProt Q99720).
T1 construct: expressed in transfected cells; host or cells: HEK-293
The assay can be described thus: Human σ1 receptor radioligand assay. As to conditions: transfected HEK-293 membranes, 5 nM [3H](+)-pentazocine, 37° C. 120 minutes; + may also stand for 1-50% inhibition at 1 or 10 μM; read-out: Binding σ-1 Ki. The procedure, abridged:
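Ki was derived from five test concentrations, or % inhibition was measured at a single 1 or 10 μM dose, against 5 nM [3H](+)-pentazocine. Incubation was 120 min at 37° C in 50 mM Tris-HCl pH 8 with 7 μg HEK-293 membranes, and 10 μM haloperidol set non-specific binding. Bound radioactivity was counted after filtration.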

For a further assay, the target named is T2, human σ2/TMEM97 receptor (Homo sapiens, UniProt Q5BJF2).
T2 construct: expressed in transfected cells; host or cells: HEK-293
The experiment in a line: Binding assay to human σ2/TMEM97 receptor. As to conditions: transfected HEK-293 membranes, 10 nM [3H]-DTG, 25° C. 120 minutes; + may also stand for 1-50% inhibition at 1 or 10 μM; read-out: Binding σ-2 Ki. The procedure, abridged: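 Membranes from transfected HEK-293 cells (15 µg) were incubated with 10 nM [3H]-DTG in 50 mM Tris-HCl pH 8.0 for 120 min at 25 °C, with 10 µM haloperidol defining non-specific binding. Filtration and scintillation counting followed. Compounds tested as % inhibition at 1 or 10 µM, or at five concentrations for Ki.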

pKi: −log10 of the molar value. A value given as a limit tells only on which side of the number the result lay.

T1 sequence (Q99720 whole entry): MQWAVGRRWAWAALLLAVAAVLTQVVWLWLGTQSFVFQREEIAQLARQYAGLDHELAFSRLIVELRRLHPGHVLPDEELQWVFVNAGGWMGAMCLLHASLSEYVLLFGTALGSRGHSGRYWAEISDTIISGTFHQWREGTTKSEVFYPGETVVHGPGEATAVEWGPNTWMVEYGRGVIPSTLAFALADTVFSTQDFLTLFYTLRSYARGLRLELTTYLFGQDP
T2 sequence (Q5BJF2 whole entry): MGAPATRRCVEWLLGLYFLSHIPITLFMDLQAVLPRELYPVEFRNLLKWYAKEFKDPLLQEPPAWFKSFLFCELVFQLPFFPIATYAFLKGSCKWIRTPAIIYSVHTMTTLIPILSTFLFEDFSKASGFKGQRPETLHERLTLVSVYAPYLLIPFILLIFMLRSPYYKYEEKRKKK

The term pKi denotes the Ki on a negative log10 scale, so that one unit is a factor of ten. `CC(C)(C)CCN1CCC2(CC1)CCN(S(=O)(=O)c1ccc(N3CCC4(CCCO4)CC3)nc1)C2` [Example 81, 8-(5-((8-(3,3-Dimethylbutyl)-2,8-diazaspiro[4.5]decan-2-yl)sulfonyl)pyridin-2-yl)-1-oxa-8-azaspiro[4.5]decane]: the negative logarithm of the Ki (pKi) on human σ1 receptor and at human σ2/TMEM97 receptor was > 7.00 in each case.
As for `O=S(=O)(c1ccc(N2CCC(F)(F)CC2)nc1)N1CCC2(CCN(Cc3ccccc3)CC2)C1` [Example 82, 8-Benzyl-2-((6-(4,4-difluoropiperidin-1-yl)pyridin-3-yl)sulfonyl)-2,8-diazaspiro[4.5]decane], the negative-log Ki (pKi) at human σ1 receptor and at human σ2/TMEM97 receptor was > 7.00 throughout.
For the molecule `O=S(=O)(c1ccc(N2CCC(F)(F)CC2)nc1)N1CCC2(CCN(CC3CCOCC3)CC2)C1` [Example 83, 2-((6-(4,4-Difluoropiperidin-1-yl)pyridin-3-yl)sulfonyl)-8-((tetrahydro-2H-pyran-4-yl)methyl)-2,8-diazaspiro[4.5]decane], the negative-log Ki (pKi) at human σ1 receptor and at human σ2/TMEM97 receptor was > 7.00 throughout.
For the molecule `O=S(=O)(c1ccc(N2CCC(F)(F)CC2)nc1)N1CCC2(CCCN(CC3CCOCC3)C2)CC1` [Example 84, 9-((6-(4,4-Difluoropiperidin-1-yl)pyridin-3-yl)sulfonyl)-2-((tetrahydro-2H-pyran-4-yl)methyl)-2,9-diazaspiro[5.5]undecane], the pKi on human σ1 receptor was > 7.00; on human σ2/TMEM97 receptor, 6.30 to 7.00.
Take `CC(C)(C)CN1CCCC2(CCN(S(=O)(=O)c3ccc(N4CCC(F)(F)CC4)nc3)CC2)C1` [Example 85, 9-((6-(4,4-Difluoropiperidin-1-yl)pyridin-3-yl)sulfonyl)-2-neopentyl-2,9-diazaspiro[5.5]undecane]: the pKi at human σ1 receptor is > 7.00; on human σ2/TMEM97 receptor, 6.00 to 6.30.
The like results for `CN(Cc1ccccc1)C1CCN(S(=O)(=O)c2ccc(N3CCC(F)(F)CC3)nc2)CC1` [Example 86, N-Benzyl-1-((6-(4,4-difluoropiperidin-1-yl)pyridin-3-yl)sulfonyl)-N-methylpiperidin-4-amine] were, in that order, > 7.00 and > 7.00.
The matching figures for `CN(Cc1ccccc1)C1CCN(S(=O)(=O)c2ccc(N3CCC4(CCCO4)CC3)nc2)CC1` [Example 87, 1-((6-(1-Oxa-8-azaspiro[4.5]decan-8-yl)pyridin-3-yl)sulfonyl)-N-benzyl-N-methylpiperidin-4-amine]: < 6.00 and > 7.00.
Consider `CC(C)(C)CCN1CCC2(CCCN(S(=O)(=O)c3ccc(N4CCOCC4)nc3)C2)CC1` [Example 88, 4-(5-((9-(3,3-Dimethylbutyl)-2,9-diazaspiro[5.5]undecan-2-yl)sulfonyl)pyridin-2-yl)morpholine], for which the pKi at human σ1 receptor and at human σ2/TMEM97 receptor was > 7.00 throughout.
As to `CN(CCC(C)(C)C)[C@H]1CC[C@H](NS(=O)(=O)c2ccc(N3CCOCC3)nc2)CC1` [Example 89, N-((1r,4r)-4-((3,3-Dimethylbutyl)(methyl)amino)cyclo-hexyl)-6-morpholinopyridine-3-sulfonamide], the pKi at human σ1 receptor is 6.00 to 6.30; on human σ2/TMEM97 receptor, > 7.00.
For `CC(C)OCCN1CCC2(CC1)CCN(S(=O)(=O)c1ccc(C(F)(F)F)nc1)CC2` [Example 90, 3-(2-Isopropoxyethyl)-9-((6-(trifluoromethyl)pyridin-3-yl)sulfonyl)-3,9-diazaspiro[5.5]undecane], the pKi on human σ1 receptor is 6.30 to 7.00; at human σ2/TMEM97 receptor it was > 7.00.
The like results for `CC(C)CN1CCC2(CC1)CCN(S(=O)(=O)c1ccc(C(F)(F)F)nc1)CC2` [Example 91, 3-Isobutyl-9-((6-(trifluoromethyl)pyridin-3-yl)sulfonyl)-3,9-diazaspiro[5.5]undecane] were, in that order, 6.00 to 6.30 and > 7.00.
Consider `CC(C)(C)CCN1CCC2(CCCN(S(=O)(=O)c3ccc(C(F)(F)F)nc3)C2)CC1` [Example 92, 9-(3,3-Dimethylbutyl)-2-((6-(trifluoromethyl)pyridin-3-yl)sulfonyl)-2,9-diazaspiro[5.5]undecane], for which the pKi at human σ1 receptor and at human σ2/TMEM97 receptor was > 7.00 throughout.
`CC(C)CCN1CCC2(CC1)CCN(S(=O)(=O)c1ccc(C(F)(F)F)nc1)CC2` [Example 93, 3-Isopentyl-9-((6-(trifluoromethyl)pyridin-3-yl)sulfonyl)-3,9-diazaspiro[5.5]undecane]: the negative logarithm of the Ki (pKi) at human σ1 receptor and at human σ2/TMEM97 receptor was > 7.00 in each case.
Turning to `CNc1ccc(S(=O)(=O)N2CCCC3(CCN(CCC(C)(C)C)CC3)C2)cn1` [Example 94, 5-((9-(3,3-Dimethylbutyl)-2,9-diazaspiro[5.5]undecan-2-yl)sulfonyl)-N-methylpyridin-2-amine], the figures for the pKi on human σ1 receptor and on human σ2/TMEM97 receptor were 6.30 to 7.00 and > 7.00, respectively.
For the molecule `CC(C)(C)CCN1CCC2(CCCN(S(=O)(=O)c3ccc(N4CCC5(CCOC5)CC4)nc3)C2)CC1` [Example 95, 8-(5-((9-(3,3-Dimethylbutyl)-2,9-diazaspiro[5.5]undecan-2-yl)sulfonyl)pyridin-2-yl)-2-oxa-8-azaspiro[4.5]decane], the pKi on human σ1 receptor and at human σ2/TMEM97 receptor was > 7.00 throughout.
Take `CC(C)(C)CCN1CCC2(CCCN(S(=O)(=O)c3ccc(N4CCC(F)(F)CC4)nc3)C2)CC1` [Example 96, 2-((6-(4,4-Difluoropiperidin-1-yl)pyridin-3-yl)sulfonyl)-9-(3,3-dimethylbutyl)-2,9-diazaspiro[5.5]undecane]: the pKi on human σ1 receptor and on human σ2/TMEM97 receptor was > 7.00 each time.
Regarding `CN(C)c1ccc(S(=O)(=O)N2CCCC3(CCN(CCC(C)(C)C)CC3)C2)cn1` [Example 97, 5-((9-(3,3-Dimethylbutyl)-2,9-diazaspiro[5.5]undecan-2-yl)sulfonyl)-N,N-dimethylpyridin-2-amine], the negative logarithm of the Ki (pKi) at human σ1 receptor and at human σ2/TMEM97 receptor was > 7.00 in each case.
Take `CC(C)(C)CCN1CCC2(CCCN(S(=O)(=O)c3ccc(N4CCC5(CCCO5)CC4)nc3)C2)CC1` [Example 98, 8-(5-((9-(3,3-Dimethylbutyl)-2,9-diazaspiro[5.5]undecan-2-yl)sulfonyl)pyridin-2-yl)-1-oxa-8-azaspiro[4.5]decane]: the negative-log Ki (pKi) at human σ1 receptor and at human σ2/TMEM97 receptor was > 7.00 throughout.
On to `CC(C)(C)CN1CCC2(CC1)CCN(S(=O)(=O)c1ccc(N3CCC(F)(F)CC3)nc1)CC2` [Example 99, 3-((6-(4,4-Difluoropiperidin-1-yl)pyridin-3-yl)sulfonyl)-9-neopentyl-3,9-diazaspiro[5.5]undecane], for which the figures for the pKi on human σ1 receptor and on human σ2/TMEM97 receptor were 6.30 to 7.00 and > 7.00, respectively.
On to `CN(CC(C)(C)C)C1CCN(S(=O)(=O)c2ccc(N3CCC(F)(F)CC3)nc2)CC1` [Example 100, 1-((6-(4,4-Difluoropiperidin-1-yl)pyridin-3-yl)sulfonyl)-N-methyl-N-neopentylpiperidin-4-amine], for which the pKi on human σ1 receptor and at human σ2/TMEM97 receptor was > 7.00 each time.
Turning to `O=S(=O)(c1ccc(N2CCC(F)(F)CC2)nc1)N1CCCC2(CCN(CC3CCOCC3)CC2)C1` [Example 101, 2-((6-(4,4-Difluoropiperidin-1-yl)pyridin-3-yl)sulfonyl)-9-((tetrahydro-2H-pyran-4-yl)methyl)-2,9-diazaspiro[5.5]undecane], the negative logarithm of the Ki (pKi) at human σ1 receptor and on human σ2/TMEM97 receptor was > 7.00 throughout.
Regarding `CC(=O)N(C)c1ccc(S(=O)(=O)N2CCCC3(CCN(CCC(C)(C)C)CC3)C2)cn1` [Example 102, N-(5-((9-(3,3-Dimethylbutyl)-2,9-diazaspiro[5.5]undecan-2-yl)sulfonyl)pyridin-2-yl)-N-methylacetamide], the negative logarithm of the Ki (pKi) on human σ1 receptor was 6.30 to 7.00; on human σ2/TMEM97 receptor it was > 7.00.
With `CC(=O)N(C)c1ccc(S(=O)(=O)N2CCC3(CCN(CCC(C)(C)C)CC3)CC2)cn1` [Example 103, N-(5-((9-(3,3-Dimethylbutyl)-3,9-diazaspiro[5.5]undecan-3-yl)sulfonyl)pyridin-2-yl)-N-methylacetamide], the pKi at human σ1 receptor was 6.30 to 7.00; at human σ2/TMEM97 receptor, > 7.00.
Take `CCC(=O)N(C)c1ccc(S(=O)(=O)N2CCCC3(CCN(CCC(C)(C)C)CC3)C2)cn1` [Example 104, N-(5-((9-(3,3-Dimethylbutyl)-2,9-diazaspiro[5.5]undecan-2-yl)sulfonyl)pyridin-2-yl)-N-methylpropionamide]: the negative logarithm of the Ki (pKi) at human σ1 receptor was 6.30 to 7.00; on human σ2/TMEM97 receptor, > 7.00.
`CCC(=O)N(C)c1ccc(S(=O)(=O)N2CCC3(CCN(CCC(C)(C)C)CC3)CC2)cn1` [Example 105, N-(5-((9-(3,3-Dimethylbutyl)-3,9-diazaspiro[5.5]undecan-3-yl)sulfonyl)pyridin-2-yl)-N-methylpropionamide]: the pKi was 6.30 to 7.00 on human σ1 receptor and > 7.00 on human σ2/TMEM97 receptor.
For `CCC(=O)Nc1ccc(S(=O)(=O)N2CCCC3(CCN(CCC(C)(C)C)CC3)C2)cn1` [Example 106, N-(5-((9-(3,3-Dimethylbutyl)-2,9-diazaspiro[5.5]undecan-2-yl)sulfonyl)pyridin-2-yl)propionamide], the negative logarithm of the Ki (pKi) at human σ1 receptor and on human σ2/TMEM97 receptor was > 7.00 throughout.
Regarding `CC(=O)Nc1ccc(S(=O)(=O)N2CCCC3(CCN(CCC(C)(C)C)CC3)C2)cn1` [Example 107, N-(5-((9-(3,3-Dimethylbutyl)-2,9-diazaspiro[5.5]undecan-2-yl)sulfonyl)pyridin-2-yl)acetamide], the pKi was 6.30 to 7.00 on human σ1 receptor and > 7.00 at human σ2/TMEM97 receptor.
For `Cc1ccc(S(=O)(=O)N2CCCC3(CCN(CCC(C)(C)C)CC3)C2)cn1` [Example 108, 9-(3,3-Dimethylbutyl)-2-((6-methylpyridin-3-yl)sulfonyl)-2,9-diazaspiro[5.5]undecane], the negative logarithm of the Ki (pKi) at human σ1 receptor and on human σ2/TMEM97 receptor was > 7.00 in each case.
